Data on two molecules can be found in patent US11180484B2, “Pyrazole derivatives as plasma kallikrein inhibitors” (KALVISTA PHARMACEUTICALS LIMITED, priority 2016, dated 2021).

Data set [1] is described as follows: Solubility in water and 0.1N HCl (aq). It is filed as physicochemical. As to conditions: thermodynamic from solid, incubated at 1 mg/mL, 37° C. The procedure: Solubility was determined in water and 0.1N HCl (aq). Test compounds were incubated at 1 mg/mL for 24 hrs at 37° C. on a shaking platform (500 rpm). Samples were taken at 1, 4 and 24 hrs and centrifuged at 15,000 g for 10 min. Test compound concentration in the supernatant was determined by LCMS against a standard curve.

Data set [2] in a line: Predicted plasma clearance (Clp), well-stirred model, human. It is filed as in vitro ADME. As to conditions: percentage of hepatic blood flow.
The next data set addresses plasmin (Homo sapiens (Human), UniProt P00747). Description: Determination of enzyme selectivity: plasmin. To be noted: substrate at Km concentration. It is filed as biochemical.
Data set [3] can be described thus: In vitro permeability, Caco-2 model for oral absorption. The format is in vitro ADME. To be noted: human, apical to basolateral, 50 μM test compound, 37° C. A digest of the protocol:
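Caco-2 monolayers grown on collagen inserts for 3 days, with 50 μM compound added apically and incubated 1 hour at 37° C with shaking. Apical-to-basolateral transport measured by LCMS in both compartments. Monolayer integrity checked by TEER before and after, and by Lucifer Yellow flux.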
(Caco-2 cells form a polarised layer with tight junctions and transporters.)

The mark [4] stands for this setting: simulated gastric fluid, 0.1N HCl (aq), read-out: Solubility 0.1N HCl (aq).
Where [5] appears, read: water, read-out: Solubility Water.

pIC50: −log10 of the molar value. In brackets after ≈: the same amount, converted by molar mass. Read-outs that look alike come from different tables or passages of the source.

Sequence of plasmin (P00747 581-810): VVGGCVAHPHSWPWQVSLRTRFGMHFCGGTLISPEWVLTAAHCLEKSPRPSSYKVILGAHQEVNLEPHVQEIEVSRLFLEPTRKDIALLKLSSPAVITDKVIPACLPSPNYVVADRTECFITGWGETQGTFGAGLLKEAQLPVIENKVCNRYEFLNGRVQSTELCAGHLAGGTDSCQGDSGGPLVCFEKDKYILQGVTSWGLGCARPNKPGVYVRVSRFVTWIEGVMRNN
Sequence of plasmin (P00747 97-580): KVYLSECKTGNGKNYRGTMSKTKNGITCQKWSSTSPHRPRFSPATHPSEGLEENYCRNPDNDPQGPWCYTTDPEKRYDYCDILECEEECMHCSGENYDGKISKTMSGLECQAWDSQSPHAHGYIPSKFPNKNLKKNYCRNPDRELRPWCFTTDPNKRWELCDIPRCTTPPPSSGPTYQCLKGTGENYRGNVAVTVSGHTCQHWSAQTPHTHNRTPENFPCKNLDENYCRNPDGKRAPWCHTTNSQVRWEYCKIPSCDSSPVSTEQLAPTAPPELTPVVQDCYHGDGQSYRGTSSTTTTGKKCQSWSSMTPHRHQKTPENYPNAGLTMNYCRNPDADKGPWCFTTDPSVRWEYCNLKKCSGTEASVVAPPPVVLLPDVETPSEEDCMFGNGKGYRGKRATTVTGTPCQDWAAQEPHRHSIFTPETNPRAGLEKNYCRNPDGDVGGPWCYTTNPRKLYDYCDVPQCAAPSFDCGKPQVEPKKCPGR
Experimental for plasmin: Human serine protease enzymes plasmin, thrombin and trypsin were assayed for enzymatic activity using an appropriate fluorogenic substrate. Protease activity was measured by monitoring the accumulation of liberated fluorescence from the substrate over 5 minutes. The linear rate of fluorescence increase per minute was expressed as percentage (%) activity. The Km for the cleavage of each substrate was determined by standard transformation of the Michaelis-Menten equation.

For the molecule `COCc1nn(Cc2ccc(Cn3ccccc3=O)cc2)cc1C(=O)NCc1c(-n2cnnn2)ccc(OC)c1F` [Example 39, N-{[2-Fluoro-3-methoxy-6-(1,2,3,4-tetrazol-1-yl)phenyl]methyl}-3-(methoxymethyl)-1-({4-[(2-oxopyridin-1-yl)methyl]phenyl}methyl)pyrazole-4-carboxamide], the solubility (as a rule, the dissolved amount per volume that the medium holds) in data set [1] (setting [4]) is 19 µg/mL (≈ 34 µM); in data set [1] (setting [5]) it was 7 µg/mL (≈ 12.5 µM). In addition, in data set [2], the “Predicted in vivo human Clp (% LBF)” value was 21 % LBF. Further, the pIC50 (commonly the negative decadic logarithm of the IC50, by convention in mol/L) on plasmin is 4.51. Also, the Papp (usually a coefficient for how fast a substance crosses the barrier) at 1 h, 50 μM in data set [3] was determined as 6 ×10⁻⁶ cm/s.
Take `COCc1nn(Cc2cnc(N3CCCC3)nc2)cc1C(=O)NCc1c(-n2cnnn2)ccc(OC)c1F` [Example 79, N-{[2-Fluoro-3-methoxy-6-(1,2,3,4-tetrazol-1-yl)phenyl]methyl}-3-(methoxymethyl)-1-{[2-(pyrrolidin-1-yl)pyrimidin-5-yl]methyl}pyrazole-4-carboxamide]: the figures for the solubility in data set [1] (setting [4]) and in data set [1] (setting [5]) were 924 µg/mL (≈ 1770 µM) and 93 µg/mL (≈ 178 µM), respectively. The “Predicted in vivo human Clp (% LBF)” value in data set [2] is given as 1 % LBF. Besides, on plasmin, the pIC50 is 4.92. The same molecule came in with a Papp at 1 h, 50 μM in data set [3] of 19 ×10⁻⁶ cm/s.
